Experimental data taken from patent US8129404B2, “Compounds and uses thereof” (Plexxikon Inc., priority 2009, dated 2012).
Read-outs that look alike come from different tables or passages of the source.

Columns and labels:
B-Raf = target: T1, B-Raf (Homo sapiens, UniProt P15056); experiment: Raf kinase biochemical assay (biotin-MEK1 phosphorylation, AlphaScreen), B-Raf; conditions: 100 μM ATP, biotin-MEK1 substrate
T1 construct: purchased Upstate Biotechnology
Description: (§1) Assays for biochemical and cell based activity are known in the art, for example, as described in PCT publication WO 2007/002433, the disclosure of which is hereby incorporated by reference as it relates to such assays. For example, the biochemical activity IC50 values are determined with respect to inhibition of B-Raf kinase activity, c-Raf-1 kinase activity, or B-Raf V600E kinase activity, where inhibition of phosphorylation of a peptide substrate is measured as a function of compound concentration. Compounds to be tested are diluted in dimethyl sulfoxide to a concentration of 0.1 mM. These are serially diluted 15 μL into 30 μL of dimethyl sulfoxide seven times in 96 well plates for a total of 8 dilution points, and for each dilution point 1 μL is added to a well of an assay plate. Plates are prepared such that each well in a 384 well plate contains 1 μL of compound in 10 μL volume with 0.1 ng Raf enzyme (i.e. any of B-Raf, c-Raf-1 or B-Raf V600E, Upstate Biotechnology or prepared by methods known to one of skill in the art), 50 mM HEPES, pH 7.0, 50 mM NaCl, 2 mM MgCl2, 1 mM MnCl2, 0.01% Tween-20, 1 mM DTT, and 100 nM biotin-MEK1 as substrate. The reaction is started with addition of 10 μL of 200 μM ATP (i.e. final 100 μM ATP). […] The plates are incubated for 3 hours at room temperature and read on Envision reader (Perkin Elmer). […]

Kit = Kit (Homo sapiens, UniProt P10721); experiment: Kinase biochemical assay, Kit
CYP2D6 = target: T2, CYP2D6 (Homo sapiens, UniProt P10635); experiment: CYP inhibition fluorescence assay, CYP2D6; assay type: in vitro ADME; conditions: substrate AMMC; read-out: Cyp IC50 2D6
T2 construct: purchased BD Biosciences
T2 sequence (P10635 whole entry): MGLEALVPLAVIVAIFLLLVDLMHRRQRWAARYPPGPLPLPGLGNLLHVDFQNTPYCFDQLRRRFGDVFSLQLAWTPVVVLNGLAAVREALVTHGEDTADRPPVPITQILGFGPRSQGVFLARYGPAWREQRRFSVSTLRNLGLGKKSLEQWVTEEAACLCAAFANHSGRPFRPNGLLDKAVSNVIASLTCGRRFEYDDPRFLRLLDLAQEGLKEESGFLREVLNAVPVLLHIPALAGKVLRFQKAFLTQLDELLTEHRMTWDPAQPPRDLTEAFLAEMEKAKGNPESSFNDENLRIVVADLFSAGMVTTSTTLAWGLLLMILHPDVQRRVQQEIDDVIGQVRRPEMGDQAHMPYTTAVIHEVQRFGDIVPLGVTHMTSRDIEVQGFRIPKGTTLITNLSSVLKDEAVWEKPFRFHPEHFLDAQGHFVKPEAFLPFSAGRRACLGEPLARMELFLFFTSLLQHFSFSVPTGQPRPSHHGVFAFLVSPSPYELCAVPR
Description: (§2) CYP (Cytochrome P450) enzymes are the major drug metabolizing enzymes present in the liver. The inhibition of CYP enzyme activity (IC50) for each of CYP1A2, CYP2C19, CYP2C9, CYP2D6, CYP3A4(BFC) and CYP3A4(BQ) is determined for compounds, where inhibition of metabolism of a known substrate leads to a decrease in the fluorescence of the metabolized product. The fluorescence of the product is monitored as a function of compound concentration. Compounds are dissolved in dimethyl sulfoxide to a concentration of 100 mM. These are diluted 1 μL into 82 μL of acetonitrile. An 11 μL aliquot of this solution is then added to 204 μL of cofactor mix (1.3% NADPH Regeneration system Solution A, 1.04% NADPH Regeneration system Solution B from BD Biosciences, 5% acetonitrile and 0.05% dimethyl sulfoxide). These are then serially diluted 160 μL to 160 μL co-factor mix for a total of 10 points. A 10 μL aliquot of this final mixture is dispensed into 384 well assay plates and incubated for 10 minutes at 37° C. Enzyme and substrate mix (10 μL; 0.5 pmol CYP1A2/5 μM CEC; 1.0 pmol CYP2C9/75 μM MFC; 0.5 pmol CYP2C19/25 μM CEC; 1.5 pmol CYP2D6/1.5 μM AMMC; 1.0 pmol CYP3A4/50 μM BFC; or 1.0 pmol CYP3A4/40 μM BQ) is added to these assay plates. […] (CYP1A2-15 min; CYP2C9-45 min; CYP2C19, 2D6 and 3A4-30 min) and read in a Tecan Safire 2 plate reader (CYP1A2, 2C19 and 3A4 409 ex/460 em; CYP2C9 and 2D6 409 ex/530 em). […]

Btk = Btk (Homo sapiens, UniProt Q06187); experiment: Kinase biochemical assay, Btk
Btk, sequence (Q06187 whole entry, species assumed): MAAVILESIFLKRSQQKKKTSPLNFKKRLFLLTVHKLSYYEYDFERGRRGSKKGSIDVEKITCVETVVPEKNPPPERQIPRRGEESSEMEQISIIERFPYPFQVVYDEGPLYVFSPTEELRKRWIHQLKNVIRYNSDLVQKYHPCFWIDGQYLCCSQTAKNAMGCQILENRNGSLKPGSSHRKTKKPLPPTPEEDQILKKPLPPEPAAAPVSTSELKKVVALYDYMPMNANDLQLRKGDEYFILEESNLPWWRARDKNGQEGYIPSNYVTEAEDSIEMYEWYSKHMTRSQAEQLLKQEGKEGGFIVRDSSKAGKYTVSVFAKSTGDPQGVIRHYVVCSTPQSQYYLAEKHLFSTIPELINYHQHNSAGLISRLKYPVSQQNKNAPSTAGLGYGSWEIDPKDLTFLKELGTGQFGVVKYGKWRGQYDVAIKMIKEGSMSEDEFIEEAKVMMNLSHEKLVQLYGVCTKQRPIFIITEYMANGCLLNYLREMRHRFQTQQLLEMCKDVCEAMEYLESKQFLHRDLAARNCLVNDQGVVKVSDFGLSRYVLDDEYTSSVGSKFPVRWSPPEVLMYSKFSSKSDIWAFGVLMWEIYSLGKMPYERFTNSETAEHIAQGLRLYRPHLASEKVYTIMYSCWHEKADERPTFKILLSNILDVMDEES

CYP1A2 = target: T3, CYP1A2 (Homo sapiens, UniProt P05177); experiment: CYP inhibition fluorescence assay, CYP1A2; assay type: in vitro ADME; conditions: substrate CEC; read-out: Cyp IC50 1A2
T3 construct: purchased BD Biosciences
T3 sequence (P05177 1-516): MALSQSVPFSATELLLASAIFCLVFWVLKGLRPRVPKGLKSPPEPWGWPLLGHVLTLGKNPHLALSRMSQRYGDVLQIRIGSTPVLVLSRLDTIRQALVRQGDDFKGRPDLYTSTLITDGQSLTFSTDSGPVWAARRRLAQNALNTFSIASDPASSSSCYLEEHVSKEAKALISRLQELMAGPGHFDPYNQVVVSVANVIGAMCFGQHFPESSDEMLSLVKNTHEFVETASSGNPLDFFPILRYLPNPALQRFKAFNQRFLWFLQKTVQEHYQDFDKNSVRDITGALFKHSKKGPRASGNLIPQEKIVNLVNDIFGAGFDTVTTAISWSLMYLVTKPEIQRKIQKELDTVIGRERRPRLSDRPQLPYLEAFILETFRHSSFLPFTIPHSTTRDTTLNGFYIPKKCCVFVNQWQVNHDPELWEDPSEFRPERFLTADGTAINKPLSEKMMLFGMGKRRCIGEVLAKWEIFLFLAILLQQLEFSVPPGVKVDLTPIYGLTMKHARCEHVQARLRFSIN
Description: as §2

CYP3A4(BQ) = target: T4, CYP3A4(BQ) (Homo sapiens, UniProt P08684); experiment: CYP inhibition fluorescence assay, CYP3A4 with BQ substrate; assay type: in vitro ADME; conditions: read-out: Cyp IC50 3A4(BQ)
T4 construct: purchased BD Biosciences
T4 sequence (P08684 whole entry): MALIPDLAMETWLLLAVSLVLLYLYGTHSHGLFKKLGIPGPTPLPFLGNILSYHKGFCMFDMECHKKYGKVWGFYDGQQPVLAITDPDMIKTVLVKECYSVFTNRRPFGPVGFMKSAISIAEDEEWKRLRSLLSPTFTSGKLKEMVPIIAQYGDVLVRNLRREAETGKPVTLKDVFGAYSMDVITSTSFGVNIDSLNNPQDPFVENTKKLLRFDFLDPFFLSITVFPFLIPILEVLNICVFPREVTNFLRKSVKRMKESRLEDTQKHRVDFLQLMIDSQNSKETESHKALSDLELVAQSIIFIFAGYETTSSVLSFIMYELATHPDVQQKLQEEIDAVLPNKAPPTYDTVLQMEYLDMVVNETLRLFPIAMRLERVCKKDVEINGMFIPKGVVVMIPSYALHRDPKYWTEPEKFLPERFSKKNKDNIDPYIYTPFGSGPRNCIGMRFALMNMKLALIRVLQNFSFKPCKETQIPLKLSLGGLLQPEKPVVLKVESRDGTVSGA
Description: as §2

[1] = Turbidity assay of relative solubility in aqueous buffers of varying pH; assay type: physicochemical
Description: As an indication of relative solubility, the turbidity of compounds in aqueous solutions is assessed. To assess possible compound properties in different physiological compartments, such as stomach, intestine, and blood, a series of aqueous buffers with varying pH is used. Thus each compound is diluted into four different physiologically relevant buffers and solution turbidity is measured by spectrophotometry.
Compounds are dissolved at a concentration of 25 mM in dimethyl sulfoxide, then serially diluted 1:1 into a 96 well plate, diluting 10 times in pure dimethyl sulfoxide, with the final well of each row a dimethyl sulfoxide blank. In an assay plate, 99 μL of appropriate buffer is added to each well, and 1 μL of each sample dilution is added to the buffer, achieving a range of final total concentrations in aqueous solutions having different pH. […] Control compounds pyrene, estriol and propranolol HCl are also assessed. Plates are spun and then mixed for 1 minute, and the absorbance is read using a Tecan Safire II to read wavelengths in the visible range (490, 535, and 650 nm) at four locations per well, reflecting the degree of turbidity present. The average optical density for each wavelength in each well is graphed vs. compound concentration, and the concentration at which the curve crosses a threshold O.D. of 0.01 for each wavelength is reported as the endpoint turbidity assay result. The average of the three wavelengths is used to compare turbidity of compounds. Compounds are considered to have low solubility if the threshold concentration is <31.3 μM, moderate solubility if the threshold concentration is 31.3 μM to 250 μM, and high solubility if the threshold concentration is >250 μM.

[2] = pKa of weakly basic and weakly acidic centers; assay type: physicochemical; conditions: approximate
TrkA = TrkA (Homo sapiens, UniProt P04629); experiment: Kinase biochemical assay, TrkA
TrkA, sequence (P04629 33-796, species assumed): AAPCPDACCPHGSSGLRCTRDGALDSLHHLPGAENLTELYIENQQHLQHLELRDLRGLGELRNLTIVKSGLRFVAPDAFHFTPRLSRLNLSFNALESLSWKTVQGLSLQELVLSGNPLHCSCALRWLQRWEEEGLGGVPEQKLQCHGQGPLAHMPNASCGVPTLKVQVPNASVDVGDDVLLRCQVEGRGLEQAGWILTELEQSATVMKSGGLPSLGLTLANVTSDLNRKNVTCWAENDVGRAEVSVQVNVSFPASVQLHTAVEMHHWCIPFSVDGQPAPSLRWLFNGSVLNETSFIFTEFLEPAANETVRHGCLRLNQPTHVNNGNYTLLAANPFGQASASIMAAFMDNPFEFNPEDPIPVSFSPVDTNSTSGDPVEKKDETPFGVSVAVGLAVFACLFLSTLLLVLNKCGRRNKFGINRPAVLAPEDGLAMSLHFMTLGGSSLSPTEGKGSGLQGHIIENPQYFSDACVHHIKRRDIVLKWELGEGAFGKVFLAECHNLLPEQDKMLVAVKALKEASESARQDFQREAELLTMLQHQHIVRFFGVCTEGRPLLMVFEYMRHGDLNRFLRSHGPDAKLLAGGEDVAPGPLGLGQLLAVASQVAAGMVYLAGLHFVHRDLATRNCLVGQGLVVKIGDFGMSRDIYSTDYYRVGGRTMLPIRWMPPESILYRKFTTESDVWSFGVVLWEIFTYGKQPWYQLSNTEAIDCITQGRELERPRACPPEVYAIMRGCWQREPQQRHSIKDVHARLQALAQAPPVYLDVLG

Hgk = Hgk (Homo sapiens, UniProt O95819); experiment: Kinase biochemical assay, Hgk
CYP2C9 = target: T5, CYP2C9 (Homo sapiens, UniProt P11712); experiment: CYP inhibition fluorescence assay, CYP2C9; assay type: in vitro ADME; conditions: substrate MFC; read-out: Cyp IC50 2C9
T5 construct: purchased BD Biosciences
T5 sequence (P11712 whole entry): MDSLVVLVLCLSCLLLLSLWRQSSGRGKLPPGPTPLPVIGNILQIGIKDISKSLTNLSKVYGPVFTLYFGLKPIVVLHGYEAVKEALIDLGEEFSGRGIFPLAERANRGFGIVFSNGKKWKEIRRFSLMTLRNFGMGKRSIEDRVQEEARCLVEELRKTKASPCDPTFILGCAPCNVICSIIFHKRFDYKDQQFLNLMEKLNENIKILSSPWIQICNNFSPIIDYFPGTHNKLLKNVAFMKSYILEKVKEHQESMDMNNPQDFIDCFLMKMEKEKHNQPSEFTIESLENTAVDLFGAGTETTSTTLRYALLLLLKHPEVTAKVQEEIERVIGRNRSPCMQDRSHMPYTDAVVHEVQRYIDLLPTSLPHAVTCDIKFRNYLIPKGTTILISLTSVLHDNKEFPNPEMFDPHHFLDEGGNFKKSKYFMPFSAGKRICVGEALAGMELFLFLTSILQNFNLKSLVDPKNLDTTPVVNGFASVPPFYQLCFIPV
Description: as §2

Fms = Fms (Homo sapiens, UniProt P07333); experiment: Kinase biochemical assay, Fms
CYP3A4(BFC) = target: T6, CYP3A4(BFC) (Homo sapiens, UniProt P08684); experiment: CYP inhibition fluorescence assay, CYP3A4 with BFC substrate; assay type: in vitro ADME; conditions: read-out: Cyp IC50 3A4(BFC)
T6 construct: purchased BD Biosciences
T6 sequence (P08684 whole entry): as the sequence (P08684 whole entry) above
Description: as §2

c-Raf-1 = target: T7, c-Raf-1 (Homo sapiens, UniProt P04049); experiment: Raf kinase biochemical assay (biotin-MEK1 phosphorylation, AlphaScreen), c-Raf-1; conditions: 100 μM ATP, biotin-MEK1 substrate
T7 construct: purchased Upstate Biotechnology
T7 sequence (P04049 whole entry): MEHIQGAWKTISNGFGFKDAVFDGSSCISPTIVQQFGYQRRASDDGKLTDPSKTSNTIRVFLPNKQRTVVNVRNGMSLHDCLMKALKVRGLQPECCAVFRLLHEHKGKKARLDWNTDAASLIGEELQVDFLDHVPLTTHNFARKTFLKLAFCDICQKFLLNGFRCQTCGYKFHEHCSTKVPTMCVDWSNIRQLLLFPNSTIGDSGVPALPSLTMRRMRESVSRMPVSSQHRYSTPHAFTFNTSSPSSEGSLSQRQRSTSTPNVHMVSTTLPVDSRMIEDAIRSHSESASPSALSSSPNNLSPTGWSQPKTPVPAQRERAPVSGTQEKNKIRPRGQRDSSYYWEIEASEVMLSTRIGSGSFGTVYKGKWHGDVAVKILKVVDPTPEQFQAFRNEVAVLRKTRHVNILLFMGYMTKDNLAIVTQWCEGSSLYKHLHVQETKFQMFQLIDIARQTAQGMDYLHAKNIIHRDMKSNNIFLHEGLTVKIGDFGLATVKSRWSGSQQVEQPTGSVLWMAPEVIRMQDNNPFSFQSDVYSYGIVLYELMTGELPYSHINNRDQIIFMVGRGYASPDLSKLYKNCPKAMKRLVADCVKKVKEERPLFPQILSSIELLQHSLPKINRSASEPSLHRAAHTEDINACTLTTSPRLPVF
Description: as §1

Kdr = Kdr (Homo sapiens, UniProt P35968); experiment: Kinase biochemical assay, Kdr
B-Raf mutant V600E = target: T8, B-Raf mutant V600E (Homo sapiens, UniProt P15056, V600E); experiment: Raf kinase biochemical assay (biotin-MEK1 phosphorylation, AlphaScreen), B-Raf V600E; conditions: 100 μM ATP, biotin-MEK1 substrate
T8 construct: purchased Upstate Biotechnology
T8 sequence (P15056 whole entry V600E): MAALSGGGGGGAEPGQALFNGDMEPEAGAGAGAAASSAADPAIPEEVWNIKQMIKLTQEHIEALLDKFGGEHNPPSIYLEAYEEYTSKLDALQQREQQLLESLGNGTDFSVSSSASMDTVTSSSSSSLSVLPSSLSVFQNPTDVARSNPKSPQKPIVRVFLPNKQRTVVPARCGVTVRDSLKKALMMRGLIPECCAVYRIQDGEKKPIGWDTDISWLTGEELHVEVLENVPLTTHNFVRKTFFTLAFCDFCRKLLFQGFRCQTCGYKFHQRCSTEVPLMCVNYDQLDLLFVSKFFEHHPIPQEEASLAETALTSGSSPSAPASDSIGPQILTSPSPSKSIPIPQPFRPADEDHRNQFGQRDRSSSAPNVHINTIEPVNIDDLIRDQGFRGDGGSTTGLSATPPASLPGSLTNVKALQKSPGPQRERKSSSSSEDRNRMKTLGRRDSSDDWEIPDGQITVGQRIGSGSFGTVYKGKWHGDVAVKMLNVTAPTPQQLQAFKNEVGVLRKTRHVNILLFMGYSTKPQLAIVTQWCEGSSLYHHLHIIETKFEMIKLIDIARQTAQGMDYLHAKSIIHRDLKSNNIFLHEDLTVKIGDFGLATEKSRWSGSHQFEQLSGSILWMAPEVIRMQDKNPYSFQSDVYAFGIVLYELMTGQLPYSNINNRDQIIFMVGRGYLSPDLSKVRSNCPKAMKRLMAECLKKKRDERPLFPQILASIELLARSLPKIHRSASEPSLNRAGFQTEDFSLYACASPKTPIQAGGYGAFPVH
Description: as §1

CYP2C19 = target: T9, CYP2C19 (Homo sapiens, UniProt P33261); experiment: CYP inhibition fluorescence assay, CYP2C19; assay type: in vitro ADME; conditions: substrate CEC; read-out: Cyp IC50 2C19
T9 construct: purchased BD Biosciences
Description: as §2

Src = Src (Homo sapiens, UniProt P12931); experiment: Kinase biochemical assay, Src
Src, sequence (P12931 whole entry, species assumed): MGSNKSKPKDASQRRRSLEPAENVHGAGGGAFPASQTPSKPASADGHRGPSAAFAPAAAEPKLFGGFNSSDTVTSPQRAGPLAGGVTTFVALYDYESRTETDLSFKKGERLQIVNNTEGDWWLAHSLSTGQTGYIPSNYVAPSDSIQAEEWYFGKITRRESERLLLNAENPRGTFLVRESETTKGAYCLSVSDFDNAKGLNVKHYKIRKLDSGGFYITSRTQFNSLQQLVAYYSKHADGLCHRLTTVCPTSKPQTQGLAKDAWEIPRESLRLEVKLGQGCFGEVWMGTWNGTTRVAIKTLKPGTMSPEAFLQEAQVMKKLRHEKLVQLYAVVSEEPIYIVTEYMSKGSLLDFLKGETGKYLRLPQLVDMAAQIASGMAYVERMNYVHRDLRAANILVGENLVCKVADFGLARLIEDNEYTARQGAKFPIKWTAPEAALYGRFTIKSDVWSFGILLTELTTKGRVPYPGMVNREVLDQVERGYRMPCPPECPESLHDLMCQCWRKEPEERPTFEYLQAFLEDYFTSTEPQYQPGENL

[3] = pH 1.4 (Simulated Gastric Fluid)
[4] = pH 4.5 (Simulated Intestinal fluid)
[5] = pH 6.8 (Simulated Intestinal fluid)
[6] = read-out: pKa of N-7 of the pyrrolo[2,3-b]pyridine portion (weakly basic)
[7] = read-out: pKa of the sulfonamide nitrogen (weakly acidic)

T1 sequence (P15056 whole entry): as the sequence (P15056 whole entry V600E) above, with E600V counted along it

Row | SMILES | IC50 (B-Raf) [µM] | IC50 (CYP2D6) [µM] | IC50 (Btk) [µM] | IC50 (CYP1A2) [µM] | IC50 (CYP3A4(BQ)) [µM] | turbidity threshold (L, M, H) [1, 3] | turbidity threshold (L, M, H) [1, 4] | turbidity threshold (L, M, H) [1, 5] | turbidity threshold (L, M, H) ([1]; pH 7.4 (Hepes Buffer)) | pKa [2, 6] | pKa [2, 7] | IC50 (TrkA) [µM] | IC50 (CYP2C9) [µM] | IC50 (Fms) [µM] | IC50 (CYP3A4(BFC)) [µM] | IC50 (c-Raf-1) [µM] | IC50 (Kdr) [µM] | IC50 (B-Raf mutant V600E) [µM] | IC50 (CYP2C19) [µM] | IC50 (Src) [µM] | other results
1 | N#Cc1ccnc2[nH]cc(C(=O)c3c(F)ccc(NS(=O)(=O)c4ccc(C(F)(F)F)cc4)c3F)c12 [Compound P-0001, N-[3-(4-cyano-1H-pyrrolo[2,3-b]pyridine-3-carbonyl)-2,4-difluoro-phenyl]-4-trifluoromethyl-benzenesulfonamide] | < 0.1 | > 10 | > 10 | > 10 | > 10 | L (low solubility if the threshold concentration is <31.3 μM) | L (low solubility if the threshold concentration is <31.3 μM) | L (low solubility if the threshold concentration is <31.3 μM) | M (moderate solubility if the threshold concentration is 31.3 μM to 250 μM) | 4 to 5 | ~7 | 1 to 10 | > 10 | > 10 | > 10 | < 0.1 | > 10 | < 1 | > 10 | 1 to 10 | IC50 (Kit): 1 to 10 µM; IC50 (Hgk): > 10 µM
2 | C#Cc1ccnc2[nH]cc(C(=O)c3c(F)ccc(NS(=O)(=O)c4ccc(C(F)(F)F)cc4)c3F)c12 [Compound P-0002, N-[3-(4-ethynyl-1H-pyrrolo[2,3-b]pyridine-3-carbonyl)-2,4-difluoro-phenyl]-4-trifluoromethyl-benzenesulfonamide] | < 0.1 | > 10 | > 10 | > 10 | > 10 | L (low solubility if the threshold concentration is <31.3 μM) | L (low solubility if the threshold concentration is <31.3 μM) | M (moderate solubility if the threshold concentration is 31.3 μM to 250 μM) | M (moderate solubility if the threshold concentration is 31.3 μM to 250 μM) | 4 to 5 | ~7 | > 10 | < 5 | > 10 | 5 to 10 | < 0.1 | ~1 | < 1 | > 10 | ~1 | –
